# Literature values as cited in patent US12687554B2, “Molecular profiling of tumors” (Caris MPI, Inc., priority 2006, dated 2026).
# Entries after “also recorded” stand apart in the source; their conditions may differ. Read-outs that look alike come from different tables or passages of the source.
# Tested on: differentially expressed or mutated biomarker in cancer cells
# [1] = EGFR, FISH, Positive, with loss of PTEN, mutation of KRAS or BRAF per Summary
# [2] = EGFR, Mutational Analysis, Mutated
# [3] = EGFR, Mutational Analysis, Wild type genotype
# [4] = PTEN, IHC, Above Threshold, with the other biomarker results named in the Summary
# [5] = biomarker PTEN, IHC, result Above Threshold, with the other biomarker results named in the Summary
# [6] = biomarker PTEN, IHC, result Negative (loss of PTEN protein expression)
# [7] = KRAS, Mutational Analysis, Mutated
# [8] = KRAS, Mutational Analysis, Wild type genotype
# [9] = KRAS, Mutational Analysis, Wild type genotype, with loss of PTEN and/or FISH negative EGFR per Summary
# [10] = biomarker EGFR, FISH, result Negative (lack of EGFR gene copy number increase)
# [11] = biomarker EGFR, FISH, result Positive (high EGFR gene copy number)
# [12] = biomarker EGFR, FISH, result Positive, with the other biomarker results named in the Summary
# [13] = biomarker EGFR, Mutational Analysis, result Mutated
# [14] = biomarker EGFR, Mutational Analysis, result Mutated, with the other biomarker results named in the Summary
# [15] = biomarker EGFR, Mutational Analysis, result Wild type genotype
# [16] = biomarker KRAS, Mutational Analysis, result Wild type genotype
# [17] = biomarker KRAS, Mutational Analysis, result Wild type genotype, with the other biomarker results named in the Summary
# [18] = biomarker KRAS, Mutational Analysis, result Mutated
compound,measurement,setting,value
CC1=C(/C=C/C(C)=C/C=C/C(C)=C/C(=O)O)C(C)(C)CCC1 [ATRA],Recommended Agents,"RARA, Microarray, Overexpressed, for use only on hematologic malignancies",ATRA
C#Cc1cccc(Nc2ncnc3cc(OCCOC)c(OCCOC)cc23)c1 [Erlotinib],Resistant Agents,"EGFR, FISH, Negative",Erlotinib
same,Resistant Agents,[1],Erlotinib
same,Recommended Agents,[2],Erlotinib
same,Resistant Agents,[3],Erlotinib
same,Recommended Agents,[4],"Erlotinib; also recorded: Erlotinib,"
same,Resistant Agents,"PTEN, IHC, Negative","Erlotinib,"
same,Resistant Agents,[5],Erlotinib
same,Resistant Agents,[6],"Erlotinib,; also recorded: Erlotinib"
COc1cc2ncnc(Nc3ccc(F)c(Cl)c3)c2cc1OCCCN1CCOCC1 [Gefitinib],Resistant Agents,"EGFR, FISH, Negative",Gefitinib
same,Resistant Agents,[1],Gefitinib
same,Recommended Agents,[2],Gefitinib
same,Resistant Agents,[3],Gefitinib
same,Recommended Agents,[4],"Gefitinib; also recorded: Gefitinib,"
same,Resistant Agents,[4],Gefitinib
same,Resistant Agents,[5],Gefitinib
same,Resistant Agents,[6],"Gefitinib,; also recorded: Gefitinib"
CC(=O)Oc1ccccc1C(=O)O [aspirin],Recommended Agents,"COX-2, IHC, Above Threshold",aspirin
same,Resistant Agents,"COX-2, IHC, Negative",aspirin
CC(=O)Oc1ccccc1C(=O)O [asprin],Recommended Agents,"COX-2, Microarray, Overexpressed",asprin
C#Cc1cccc(Nc2ncnc3cc(OCCOC)c(OCCOC)cc23)c1 [erlotinib],Resistant Agents,"EGFR, FISH, Negative",erlotinib
same,Recommended Agents,"EGFR, FISH, Positive",erlotinib
same,Resistant Agents,[1],erlotinib
same,Resistant Agents,[7],erlotinib
same,Recommended Agents,[8],erlotinib
same,Resistant Agents,[9],erlotinib
same,Recommended Agents,[4],erlotinib
same,Resistant Agents,[4],erlotinib
same,Resistant Agents,"PTEN, IHC, Negative",erlotinib
same,Resistant Agents,[10],erlotinib
same,Recommended Agents,[11],erlotinib
same,Resistant Agents,[12],erlotinib
same,Recommended Agents,[13],erlotinib
same,Resistant Agents,[14],erlotinib
same,Resistant Agents,[15],erlotinib
same,Recommended Agents,[16],erlotinib
same,Resistant Agents,[17],erlotinib
same,Resistant Agents,[5],erlotinib
same,Resistant Agents,[6],"erlotinib,"
COc1cc2ncnc(Nc3ccc(F)c(Cl)c3)c2cc1OCCCN1CCOCC1 [gefitinib],Recommended Agents,"EGFR, FISH, Positive",gefitinib
same,Resistant Agents,[1],gefitinib
same,Resistant Agents,[7],gefitinib
same,Recommended Agents,[8],gefitinib
same,Resistant Agents,[9],gefitinib
same,Recommended Agents,[4],gefitinib
same,Resistant Agents,[4],gefitinib
same,Resistant Agents,"PTEN, IHC, Negative",gefitinib
same,Resistant Agents,[10],gefitinib
same,Recommended Agents,[11],gefitinib
same,Resistant Agents,[12],gefitinib
same,Recommended Agents,[13],gefitinib
same,Resistant Agents,[14],gefitinib
same,Resistant Agents,[15],gefitinib
same,Resistant Agents,[18],gefitinib
same,Recommended Agents,[16],gefitinib
same,Resistant Agents,[17],gefitinib
same,Recommended Agents,"biomarker PTEN, IHC, result Above Threshold",gefitinib
same,Resistant Agents,[5],gefitinib
Cc1ccc(NC(=O)c2ccc(CN3CCN(C)CC3)cc2)cc1Nc1nccc(-c2cccnc2)n1 [imatinib],Recommended Agents,"c-kit, Mutational Analysis, Mutated, mutations in exon 9",imatinib
same,Resistant Agents,"c-kit, Mutational Analysis, Mutated, mutations in exon 11",imatinib
same,Recommended Agents,"c-kit, Mutational Analysis, Wild type genotype",imatinib
CS(=O)(=O)CCNCc1ccc(-c2ccc3ncnc(Nc4ccc(OCc5cccc(F)c5)c(Cl)c4)c3c2)o1 [lapatinib],Recommended Agents,"Her2/Neu, FISH, Amplified",lapatinib
same,Resistant Agents,"Her2/Neu, FISH, Not Amplified",lapatinib
same,Recommended Agents,"Her2/Neu, IHC, Above Threshold",lapatinib
same,Resistant Agents,"Her2/Neu, IHC, Negative",lapatinib
same,Resistant Agents,[4],lapatinib
same,Resistant Agents,"PTEN, IHC, Negative",lapatinib
Panitumumab,Resistant Agents,[1],"Panitumumab,"
same,Recommended Agents,[4],"Panitumumab,"
same,Resistant Agents,[5],"Panitumumab,"
same,Resistant Agents,[6],"Panitumumab,"
panitumumab,Resistant Agents,"BRAF, Mutational Analysis, Mutated",panitumumab
same,Recommended Agents,"BRAF, Mutational Analysis, Wild type genotype",panitumumab
same,Resistant Agents,"BRAF, Mutational Analysis, Wild type genotype, with loss of PTEN and/or FISH negative EGFR per Summary",panitumumab
same,Resistant Agents,[1],"panitumumab,"
same,Resistant Agents,[7],"panitumumab,"
same,Recommended Agents,[8],"panitumumab,"
same,Resistant Agents,[9],"panitumumab,"
same,Recommended Agents,[4],"panitumumab,; also recorded: panitumumab"
same,Resistant Agents,[4],"panitumumab,"
same,Resistant Agents,"PTEN, IHC, Negative","panitumumab,"
same,Resistant Agents,"biomarker BRAF, Mutational Analysis, result Mutated",panitumumab
same,Resistant Agents,"biomarker BRAF, Mutational Analysis, result Wild type genotype, with the other biomarker results named in the Summary",panitumumab
same,Resistant Agents,[10],"panitumumab,"
same,Resistant Agents,[12],"panitumumab,"
same,Resistant Agents,[18],"panitumumab,"
same,Resistant Agents,[17],"panitumumab,"
same,Resistant Agents,[5],"panitumumab,"
same,Resistant Agents,[6],"panitumumab,"
